Each molecule was assayed on HT29 cells (assay: Inhibition of cell necrosis (CCK8 method), induced programmed necrosis of HT29 cells). Details: Homo sapiens, HT-29; rescue from necrosis induced by TNF-α 20 ng/mL, AT-406 1 μM, Z-VAD-FMK 20 μM; 16-20 hours; CCK-8, OD 450 nm.
Format: cell-based
Outline: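 Rescue from programmed necrosis was scored by CCK-8 absorbance at 450 nm after 16-20 h of TNF-α (20 ng/mL), AT-406 (1 μM) and Z-VAD-FMK (20 μM) at 37 °C, 5% CO2. HT29 cells had received compound 30 min earlier across nine 4-fold dilutions (top 25000 nM final). IC50 came from % inhibition relative to uninduced and induced-only wells.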

Compared with `Cc1cnc(NC(=O)c2nnc(Cc3ccccc3F)[nH]2)cc1-c1cc(OCC2CCOCC2)ccc1F` [Example 331, N-(4-(2-fluoro-5-((tetrahydro-2H-pyran-4-yl)methoxy)phenyl)-5-methylpyridin-2-yl)-5-(2-fluorobenzyl)-4H-1,2,4-triazole-3-carboxamide], `O=C(Nc1cc(-c2cc(OCC3CCOCC3)ccc2Cl)c(Cl)cn1)c1nnc(Cc2ccccc2F)[nH]1` [Example 424, N-(5-chloro-4-(2-chloro-5-((tetrahydro-2H-pyran-4-yl)methoxy)phenyl)pyridin-2-yl)-5-(2-fluorobenzyl)-4H-1,2,4-triazole-3-carboxamide] is lower in IC50: 1 to 10 µM for the first, 0.1 to 1 µM for the second. The second is the more potent here.

`CC(C)(O)COc1ccc(C(F)(F)F)c(-c2ccnc(NC(=O)c3nnc(Cc4ccccc4F)[nH]3)c2)c1` [Example 265, 5-(2-fluorobenzyl)-N-(4-(5-(2-hydroxyl-2-methylpropoxy)-2-(trifluoromethyl)phenyl)pyridin-2-yl)-4H-1,2,4-triazole-3-carboxamide] and `CC(C)(O)CCCOc1ccc(C(F)(F)F)c(-c2ccnc(NC(=O)c3nnc(Cc4ccccc4F)[nH]3)c2)c1` [Example 255, 5-(2-fluorobenzyl)-N-(4-(5-((4-hydroxy-4-methylpentyl)oxy)-2-(trifluoromethyl)phenyl)pyridin-2-yl)-4H-1,2,4-triazole-3-carboxamide] cannot be ordered by IC50: 0.1 to 1 µM for the first, no more than 0.1 µM for the second.

`O=C(Nc1cc(-c2cc(OCC3CCOCC3)ccc2Cl)ccn1)c1nnc(Cc2ccccc2F)[nH]1` [Example 400, 5-(2-fluorobenzyl)-N-(4-(2-chloro-5-((tetrahydro-2H-pyran-4-yl)methoxy)phenyl)pyridin-2-yl)-4H-1,2,4-triazole-3-carboxamide] and `O=C(Nc1cc(-c2cc(OCC3CCOCC3)ccc2C(F)(F)F)ccn1)c1nnc(Cc2ccccc2F)[nH]1` [Example 300, 5-(2-fluorobenzyl)-N-(4-(5-((tetrahydro-2H-pyran-4-yl)methoxy)-2-(trifluoromethyl)phenyl)pyridin-2-yl)-4H-1,2,4-triazole-3-carboxamide] cannot be ordered by IC50: no more than 0.1 µM for the first, no more than 0.1 µM for the second.

`Cc1ccc(OCCCC(C)(C)O)cc1-c1ccnc(NC(=O)c2nnc(Cc3cccc(Cl)c3)[nH]2)c1` [Example 185, 5-(3-chlorobenzyl)-N-(4-(5-((4-hydroxy-4-methylpentyl)oxy)-2-methylphenyl)pyridin-2-yl)-4H-1,2,4-triazole-3-carboxamide] and `Cc1ccc(OCCCC(C)(C)O)cc1-c1ccnc(NC(=O)c2nnc(Cc3cc(F)ccc3F)[nH]2)c1` [Example 203, 5-(2,5-difluorobenzyl)-N-(4-(5-((4-hydroxy-4-methylpentyl)oxy)-2-methylphenyl)pyridin-2-yl)-4H-1,2,4-triazole-3-carboxamide] cannot be ordered by IC50: no more than 0.1 µM for the first, no more than 0.1 µM for the second.

`Cc1c(OCCO)cccc1-c1ccnc(NC(=O)c2nnc(Cc3ccccc3)[nH]2)c1` [Example 95, 5-benzyl-N-(4-(3-(2-hydroxyethoxy)-2-methylphenyl)pyridin-2-yl)-4H-1,2,4-triazole-3-carboxamide] and `Cc1c(OCCCO)cccc1-c1ccnc(NC(=O)c2nnc(Cc3ccccc3)[nH]2)c1` [Example 97, 5-benzyl-N-(4-(3-(3-hydroxylpropoxy)-2-methylphenyl)pyridin-2-yl)-4H-1,2,4-triazole-3-carboxamide] fall in the same range of IC50: 0.1 to 1 µM for the first, 0.1 to 1 µM for the second.

`Cc1c(F)cc(OCCCC(C)(C)O)cc1-c1ccnc(NC(=O)c2nnc(Cc3ccccc3F)[nH]2)c1` [Example 236, 5-(2-fluorobenzyl)-N-(4-(3-fluoro-5-((4-hydroxy-4-methylpentyl)oxy)-2-methylphenyl)pyridin-2-yl)-4H-1,2,4-triazole-3-carboxamide] and `CC(C)(O)CCCOc1ccc(Cl)c(-c2cc(NC(=O)c3nnc(Cc4ccccc4F)[nH]3)ncn2)c1` [Example 463, 5-(2-fluorobenzyl)-N-(6-(2-chloro-5-((4-hydroxy-4-methylpentyl)oxy)phenyl)pyrimidin-4-yl)-4H-1,2,4-triazole-3-carboxamide] cannot be ordered by IC50: no more than 0.1 µM for the first, no more than 0.1 µM for the second.

`O=C(Nc1cc(-c2cc(OCCC3CCOCC3)ccc2Cl)ncn1)c1nnc(Cc2ccccc2F)[nH]1` [Example 471, N-(6-(2-chloro-5-(2-(tetrahydro-2H-pyran-4-yl)ethoxy)phenyl)pyrimidin-4-yl)-5-(2-fluorobenzyl)-4H-1,2,4-triazole-3-carboxamide] and `Cc1ccc(OCC2CCOCC2)cc1-c1cc(NC(=O)c2nnc(Cc3ccccc3F)[nH]2)ncn1` [Example 442, 5-(2-fluorobenzyl)-N-(6-(2-methyl-5-((tetrahydro-2H-pyran-4-yl)methoxy)phenyl)pyrimidin-4-yl)-4H-1,2,4-triazole-3-carboxamide] cannot be ordered by IC50: no more than 0.1 µM for the first, no more than 0.1 µM for the second.

`O=C(Nc1cc(-c2cc(OCCC3CCOCC3)ccc2Cl)ccn1)c1nnc(Cc2ccccc2)[nH]1` [Example 403, 5-benzyl-N-(4-(2-chloro-5-(2-(tetrahydro-2H-pyran-4-yl)ethoxy)phenyl)pyridin-2-yl)-4H-1,2,4-triazole-3-carboxamide] and `Cc1ccc(Cl)cc1-c1ccnc(NC(=O)c2nnc(Cc3ccccc3)[nH]2)c1` [Example 34, 5-benzyl-N-(4-(5-chloro-2-methylphenyl)pyridin-2-yl)-4H-1,2,4-triazole-3-carboxamide] cannot be ordered by IC50: no more than 0.1 µM for the first, 0.1 to 1 µM for the second.

`CCOc1cccc(C)c1-c1ccnc(NC(=O)c2nnc(Cc3ccccc3)[nH]2)c1` [Example 93, 5-benzyl-N-(4-(2-ethoxy-6-methylphenyl)pyridin-2-yl)-4H-1,2,4-triazole-3-carboxamide] and `COCCOc1cccc(C)c1-c1ccnc(NC(=O)c2nnc(Cc3ccccc3)[nH]2)c1` [Example 94, 5-benzyl-N-(4-(2-(2-methoxyethoxy)-6-methylphenyl)pyridin-2-yl)-4H-1,2,4-triazole-3-carboxamide] fall in the same range of IC50: 1 to 10 µM for the first, 1 to 10 µM for the second.

`Cc1ccc(OCC2CCOCC2)cc1-c1cc(NC(=O)c2nnc(CC3CCCCC3)[nH]2)ncc1Cl` [Example 250, N-(5-chloro-4-(2-methyl-5-((tetrahydro-2H-pyran-4-yl)methoxy)phenyl)pyridin-2-yl)-5-(cyclohexylmethyl)-4H-1,2,4-triazole-3-carboxamide] and `O=C(Nc1cc(-c2cc(OCC3CCOCC3)ccc2F)c(Cl)cn1)c1nnc(CC2CCCCC2)[nH]1` [Example 330, 5-(cyclohexylmethyl)-N-(5-chloro-4-(2-fluoro-5-((tetrahydro-2H-pyran-4-yl)methoxy)phenyl)pyridin-2-yl)-4H-1,2,4-triazole-3-carboxamide] cannot be ordered by IC50: no more than 0.1 µM for the first, 0.1 to 1 µM for the second.

First: Cc1ccc(OCCCC(C)(C)O)cc1-c1cc(NC(=O)c2nnc(Cc3ccc(F)cc3F)[nH]2)ncn1 [Example 435, 5-(2,4-difluorobenzyl)-N-(6-(5-((4-hydroxy-4-methylpentyl)oxy)-2-methylphenyl)pyrimidin-4-yl)-4H-1,2,4-triazole-3-carboxamide]
Second: CC(C)(O)CCCOc1ccc(Cl)c(-c2ccnc(NC(=O)c3nnc(Cc4cc(F)cc(C(F)(F)F)c4)[nH]3)c2)c1 [Example 348, N-(4-(2-chloro-5-((4-hydroxy-4-methylpentyl)oxy)phenyl)pyridin-2-yl)-5-(3-fluoro-5-(trifluoromethyl)benzyl)-4H-1,2,4-triazole-3-carboxamide]
The IC50 of the first is lower: no more than 0.1 µM for the first, 1 to 10 µM for the second.

`COCCOc1ccc(C(F)(F)F)c(-c2ccnc(NC(=O)c3nnc(Cc4ccccc4F)[nH]3)c2)c1` [Example 280, 5-(2-fluorobenzyl)-N-(4-(5-(2-methoxyethoxy)-2-(trifluoromethyl)phenyl)pyridin-2-yl)-4H-1,2,4-triazole-3-carboxamide] and `CC(C)(O)COc1ccc(C(F)(F)F)c(-c2ccnc(NC(=O)c3nnc(Cc4ccccc4)[nH]3)c2)c1` [Example 264, 5-benzyl-N-(4-(5-(2-hydroxyl-2-methylpropoxy)-2-(trifluoromethyl)phenyl)pyridin-2-yl)-4H-1,2,4-triazole-3-carboxamide] cannot be ordered by IC50: no more than 0.1 µM for the first, no more than 0.1 µM for the second.

`CC(C)OCCOc1ccc(Cl)c(-c2ccnc(NC(=O)c3nnc(CC4CCCCC4)[nH]3)c2)c1` [Example 390, N-(4-(2-chloro-5-(2-isopropoxyethoxy)phenyl)pyridin-2-yl)-5-(cyclohexylmethyl)-4H-1,2,4-triazole-3-carboxamide] and `CCC(O)(CC)CCCOc1ccc(Cl)c(-c2cc(NC(=O)c3nnc(CC4CCCCC4)[nH]3)ncc2Cl)c1` [Example 418, N-(5-chloro-4-(2-chloro-5-((4-ethyl-4-hydroxyhexyl)oxy)phenyl)pyridin-2-yl)-5-(cyclohexylmethyl)-4H-1,2,4-triazole-3-carboxamide] cannot be ordered by IC50: no more than 0.1 µM for the first, 0.1 to 1 µM for the second.

First: Cc1cc(Cl)ccc1-c1ccnc(NC(=O)c2nnc(Cc3ccccc3)[nH]2)c1 [Example 11, 5-benzyl-N-(4-(4-chloro-2-methylphenyl)pyridin-2-yl)-4H-1,2,4-triazole-3-carboxamide]
Second: COCCCOc1cccc(-c2ccnc(NC(=O)c3nnc(Cc4ccccc4)[nH]3)c2)c1C [Example 98, 5-benzyl-N-(4-(3-(3-methoxypropoxy)-2-methylphenyl)pyridin-2-yl)-4H-1,2,4-triazole-3-carboxamide]
The IC50 of the first is higher: 1 to 10 µM for the first, 0.1 to 1 µM for the second.

First: COCCOc1ccccc1-c1ccnc(NC(=O)c2nnc(Cc3ccccc3)[nH]2)c1 [Example 126, 5-benzyl-N-(4-(2-(2-methoxyethoxy)phenyl)pyridin-2-yl)-4H-1,2,4-triazole-3-carboxamide]
Second: COCCOc1ccc(C)c(-c2ccnc(NC(=O)c3nnc(Cc4ccccc4)s3)c2)c1 [Example 130, 5-benzyl-N-(4-(5-(2-methoxyethoxy)-2-methylphenyl)pyridin-2-yl)-1,3,4-thiodiazol-2-carboxamide]
The IC50 of the first is lower: 1 to 10 µM for the first, greater than 10 µM for the second.

In the case of `Cn1nc(C(F)(F)F)cc1-c1ccnc(NC(=O)c2nnc(Cc3ccccc3)[nH]2)c1` [Example 28, 5-benzyl-N-(4-(1-methyl-3-(trifluoromethyl)-1H-pyrazol-5-yl)pyridin-2-yl)-4H-1,2,4-triazole-3-carboxamide], the IC50 is reported as 1 to 10 µM.

From patent US12435060B2, “Acylamino bridged heterocyclic compound, and composition and application thereof” (BEIJING SCITECH-MQ PHARMACEUTICALS LIMITED, priority 2019, dated 2025)
